Experimental findings from ChEMBL document CHEMBL5584340, “Discovery of Novel Antiosteoporosis Leads with Bone Resorption Inhibition and Anabolic Promotion through a Chemotype-Assembly Approach” (J Med Chem, 2024) are described below.

As a reminder, the IC50 is the concentration needed to halve the response being measured. What is called CC50 is the concentration giving 50% cytotoxicity.

Active and inactive are the calls of the source. The rule behind the calls is not given here.

The test system of data set [1] is BMDM. In words: Anti-osteoclastogenic activity in M-CSF/RANKL-induced C57BL/6 mouse BMDM cells assessed as inhibition of M-CSF/RANKL-stimulated osteoclast differentiation at 10 uM measured after 5 days by TRAP staining based microscopic analysis relative to control. Set-up: scale not given: the % may be the effect or the level left. As to conditions: time 5 day. In kind it is functional.

Data set [2] deals with BMDM. In words: Anti-osteoclastogenic activity in M-CSF/RANKL-induced C57BL/6 mouse BMDM cells assessed as inhibition of M-CSF/RANKL-stimulated osteoclast differentiation measured after 5 days by TRAP staining based microscopic analysis. In kind it is functional, cell-based. As to conditions: C57BL/6, BMDM, 120 h.
The subject of data set [3] is C3H 10T1/2. Kind of data set: Induction of osteoblastogenesis in mouse C3H 10T1/2 cells assessed as upregulation of SPARC gene expression at 1 uM incubated for 7 days by RT-qPCR analysis. As to conditions: time 7.0 day. Type of data set: functional, cell-based.
The subject of data set [4] is C3H 10T1/2. In words: Induction of osteoclastogenesis in mouse C3H 10T1/2 cells assessed as upregulation of RANKL gene expression at 1 uM incubated for 7 days by RT-qPCR analysis. As to conditions: time 7.0 day. Type of data set: functional, cell-based.
Data set [5] has as its system C3H 10T1/2. Kind of data set: Anabolic activity in mouse C3H 10T1/2 cells by measuring fold change in osteoblast differentiation at 10 uM incubated for 7 days by ALP staining based analysis. As to conditions: time 7 day. Type of data set: functional.
Data set [6] relates to C3H 10T1/2. Kind of data set: Induction of osteoblastogenesis in mouse C3H 10T1/2 cells assessed as upregulation of ALP gene expression at 1 uM incubated for 7 days by RT-qPCR analysis. In kind it is functional, cell-based. As to conditions: time 7.0 day.
Data set [7] relates to C3H 10T1/2. In words: Induction of osteoblastogenesis in mouse C3H 10T1/2 cells assessed as upregulation of SP7 gene expression at 1 uM incubated for 7 days by RT-qPCR analysis. In kind it is functional, cell-based. As to conditions: time 7.0 day. A general note: Real-time PCR tracks product formation cycle by cycle.
The test system of data set [8] is C3H 10T1/2. Kind of data set: Induction of osteoblast mineralization in mouse C3H 10T1/2 cells assessed as increase in calcium deposition at 10 uM measured after 14 days by Alizarin Red S staining based analysis. In kind it is functional, cell-based. As to conditions: time 14.0 day.
A short description of data set [9]: Cytotoxicity against mouse RAW264.7 cells incubated for 48 hrs by CCK-8 assay. In kind it is toxicity, cell-based.
Data set [10] concerns C3H 10T1/2. Kind of data set: Induction of osteoblast differentiation in mouse C3H 10T1/2 cells at 10 uM incubated for 7 days by ALP staining based analysis. As to conditions: time 7.0 day. Type of data set: functional, cell-based.
Data set [11] concerns BMDM. In words: Anti-osteoclastogenic activity in M-CSF/RANKL-induced C57BL/6 mouse BMDM cells assessed as downregulation of C-Fos mRNA expression at 1 uM incubated for 7 days by RT-qPCR analysis. Type of data set: functional, cell-based. As to conditions: time 7.0 day.
For data set [12], the system named is C3H 10T1/2. In words: Induction of osteoblast mineralization in mouse C3H 10T1/2 cells assessed as increase in calcium deposition at 1 uM measured after 14 days by Alizarin Red S staining based analysis. In kind it is functional, cell-based. As to conditions: time 14.0 day.
Data set [13] relates to BMDM. In words: Anti-osteoclastogenic activity in M-CSF/RANKL-induced C57BL/6 mouse BMDM cells assessed as downregulation of CTSK mRNA expression at 1 uM incubated for 7 days by RT-qPCR analysis. In kind it is functional, cell-based. As to conditions: time 7.0 day.
For data set [14], the system named is BMDM. In words: Anti-osteoclastogenic activity in M-CSF/RANKL-induced C57BL/6 mouse BMDM cells assessed as downregulation of ATP6VOD2 mRNA expression at 1 uM incubated for 7 days by RT-qPCR analysis. In kind it is functional, cell-based. As to conditions: time 7.0 day.
Data set [15] has as its system BMDM. Kind of data set: Anti-osteoclastogenic activity in M-CSF/RANKL-induced C57BL/6 mouse BMDM cells assessed as downregulation of TRACP mRNA expression at 1 uM incubated for 7 days by RT-qPCR analysis. Type of data set: functional, cell-based. As to conditions: time 7.0 day.

As to `NC(Cc1cc(I)c(Oc2ccc(O)c(I)c2)c(I)c1)C(=O)O` (configuration not stated) [RATHYRONINE], the Activity in data set [1] is listed as less than 10%. With `O=C1NC(=O)C(=NNc2cccc(C(=O)O)c2)C(=O)N1`, the Activity in data set [1] was less than 10%.

As to `O=C(O)c1ccccc1C(=O)Nc1nccs1`, the IC50 in [2] turned out to be 8.5 µM. Moreover, the outcome in [3], in data set [6], in data set [7], in [8] and in data set [10] was Active. For the same compound, the outcome in data set [4] was inactive. Moreover, the “fold change (FC)” value in data set [5] is 11.4. Moreover, the Activity in [1] is reported as 75%. The compound also showed a CC50 at 48 h in data set [9] of 178 µM. For `CC(C)(C)c1ccc(-c2cc(C(=O)O)c3ccccc3n2)cc1`, the “fold change (FC)” value in [5] is less than 2. Besides, the Activity in [1] came out at 80%. For the compound `O=C(O)c1ccccc1C(=O)Nc1nc2c(s1)CCCC2`, the Activity in data set [1] is less than 10%. For `Cc1ccc(-c2cc(C(=O)O)c3ccccc3n2)c(C)c1`, in data set [1], the Activity is given as less than 10%. As for `NC(Cc1cc(I)c(Oc2cc(I)c(O)c(I)c2)c(I)c1)C(=O)O` (configuration not stated) [THYROXINE], in data set [1], the Activity is given as less than 10%. Consider `O=C(O)c1cccc(NS(=O)(=O)c2ccc(I)cc2)c1`, for which the Activity in data set [1] is recorded as less than 10%. With `Cc1ccc(C(=O)Nc2nccs2)c(C(=O)O)c1`, in data set [2], the IC50 stood at 12.8 µM. The compound also came in with a CC50 at 48 h in data set [9] of 46.9 µM. On the same counts, the results for `O=C(O)c1cc(Cl)ccc1C(=O)Nc1nc2ccccc2s1` are 3.5 µM and 1330 µM.

Regarding `O=C(O)C1OC(Oc2cc3oc(-c4ccc(O)cc4)cc(=O)c3c(O)c2O)C(O)C(O)C1O` (configuration not stated), the “fold change (FC)” value in data set [5] is recorded as less than 2. For the same compound, the Activity in data set [1] stood at 80%. Turning to `O=C(O)c1ccccc1C(=O)Nc1ccccn1`, in [2], the IC50 was found to be 14.4 µM. In addition, the midpoint of cytotoxicity in data set [9], the CC50 at 48 h, lay at 3820 µM. For the compound `O=C(O)c1ccccc1SCc1cc(O)nc(O)n1`, the “fold change (FC)” value in [5] turned out to be 8.2. The Activity in data set [1] was found to be 90%. On to `Nc1ccc(-c2cc(C(=O)O)c3ccccc3n2)cc1`, for which the Activity in data set [1] is on record as less than 10%. Take `O=C(Nc1nccs1)c1cccc(F)c1C(=O)O`: in [2], the IC50 worked out at 3.16 µM. Besides, the midpoint of cytotoxicity in [9], the CC50 at 48 h, lay at 930 µM. As to `COC(=O)c1ccccc1C(=O)Nc1nccs1`, in [2], the IC50 was determined as 28.1 µM. In [9], this compound gave a CC50 at 48 h of 498 µM. Consider `O=C(O)c1cccc(Nc2nc3ccccc3[nH]2)c1`, for which, in data set [1], the Activity worked out at 33%. For the compound `CN(CCCC(=O)O)c1nc(-c2ccc(Br)cc2)cs1`, the Activity in [1] is recorded as less than 10%. Take `Cc1ccc(-c2nc3ccccc3c(C(=O)O)c2C)cc1`: in data set [1], the Activity is listed as less than 10%.

`CCOC(=O)c1sc(NC(=O)c2ccccc2C(=O)O)nc1C`: in data set [2], the IC50 was more than 33 µM.

Turning to `COc1ccc(-c2nc(NC(=O)C3CCCCC3C(=O)O)sc2C)cc1` (configuration not stated), the Activity in [1] is given as less than 10%.

With `COc1cccc(-c2cc(C(=O)O)c3ccccc3n2)c1`, the Activity in [1] is less than 10%. Take `O=C(O)c1ccc(-c2cnc3ccccc3n2)cc1`: the Activity in [1] was less than 10%. Same read-out and setting: the result for `Cc1ccc(C)c(-c2cc(C(=O)O)c3ccccc3n2)c1` reads less than 10%. Consider `O=C(O)c1cc(Cl)ccc1C(=O)Nc1nccs1`, for which, in [2], the IC50 amounted to 2.02 µM. The same compound returned a cytotoxic concentration (CC50) at 48 h in [9] of 144 µM.

For `O=C(O)c1cc2ccccc2cc1C(=O)Nc1nccs1`, the IC50 in [2] was found to be 1.05 µM. In addition, the outcome in [3], in [6], in [11], in [7], in data set [12] and in data set [13] was Active. For the same compound, the result in data set [14] and in [15] was Active. Moreover, in data set [4], the result was inactive. This compound came in with a CC50 at 48 h in data set [9] of 490 µM. On to `O=C(O)c1ccc(N2C(=O)CSC2=S)cc1`, for which the “fold change (FC)” value in data set [5] was 7.5. In data set [1], the Activity is 79%. Taken in the same sequence, the figures for `Nc1cccc(-c2cc(C(=O)O)c3ccccc3n2)c1` were less than 2 and 50%.

In the case of `Cc1ccc(-c2cc(C(=O)O)c3cccc(C)c3n2)cc1`, the Activity in [1] is listed as less than 10%. On to `O=C(O)c1ccccc1C(=O)Nc1nc2ccccc2s1`, for which the IC50 in [2] was 2.35 µM. In addition, the CC50 at 48 h in [9] is 380 µM.

For the compound `NCCCC(O)(P(=O)([O-])O)P(=O)(O)O.[Na+]` [ALENDRONATE SODIUM], the IC50 in [2] worked out at 0.39 µM. Moreover, the Activity in data set [1] is given as 81%. `COc1ccc(-c2cc(C(=O)O)c3ccccc3n2)cc1OC`: in data set [1], the Activity stood at 40%.

Take `Cc1cccc(NC(=O)c2ccccc2C(=O)O)c1C`: the Activity in data set [1] was less than 10%. As for `O=C(Nc1nccs1)c1cccc(O)c1C(=O)O`, the IC50 in [2] is more than 33 µM.

`Cc1cccc(C)c1NC(=O)c1ccccc1C(=O)O` [FTAXILIDE]: in data set [5], the “fold change (FC)” value worked out at 6. Also, the Activity in data set [1] is listed as 80%. Regarding `CN1C(=O)[C@@H](/N=N/c2ccccc2C(=O)O)N(C)C1=S`, in data set [5], the “fold change (FC)” value is 3.9. Moreover, the Activity in [1] is reported as 50%. Regarding `Cc1cccc(C(=O)Nc2scc(-c3cccs3)c2C(=O)O)c1`, the Activity in [1] is listed as less than 10%.

Take `COc1ccccc1-c1cc(C(=O)O)c2ccccc2n1`: the Activity in data set [1] was less than 10%. Take `CCc1ccc(-c2cc(C(=O)O)c3ccccc3n2)cc1`: the Activity in [1] came to 30%. Take `Cc1csc(NC(=O)c2ccccc2C(=O)O)n1`: the IC50 in data set [2] was 12.4 µM. The compound further yielded a CC50 at 48 h in data set [9] of 212 µM.

With `Cn1ncc2c(Nc3ccc(C(=O)O)cc3)ncnc21`, in data set [5], the “fold change (FC)” value is on record as 3.2. Besides, in data set [1], the Activity was 50%. Consider `Cc1cc(C)c(S(=O)(=O)Nc2ccc(C(=O)O)cc2)cc1C`, for which the Activity in data set [1] is listed as less than 10%. In the case of `COc1ccc(-c2occ(C(=O)O)c2C(=O)O)cc1`, the Activity in data set [1] is less than 10%. With `Cc1ccc2nc(-c3ccc(Cl)cc3)cc(C(=O)O)c2c1`, in data set [5], the “fold change (FC)” value was determined as 2.4. Further, in [1], the Activity worked out at 80%. In the case of `COc1cccc(C(=O)O)c1C(=O)Nc1nccs1`, the IC50 in [2] came out at 3.94 µM. Besides, the CC50 at 48 h in data set [9] stood at 36.3 µM.

For `O=C(O)c1ccc2[nH]c(-c3cccc(-c4nc5cc(C(=O)O)ccc5[nH]4)c3)nc2c1`, in [1], the Activity is on record as 20%. Turning to `CCOC(=O)c1sc(NC(=O)c2cc3ccccc3cc2C(=O)O)nc1C`, the IC50 in data set [2] is 2.35 µM. This compound registered a CC50 at 48 h in data set [9] of 506 µM. For `Cc1cc(C(=O)O)ccc1-c1ccc(CO)o1`, in [1], the Activity is given as less than 10%.
